What was measured:
Assay in all cases: biochemical
Format in all cases: binding
panel of 442 kinases [1] = target: T1, panel of 442 kinases (Homo sapiens, UniProt Q15835); settings: kinase GRK1; for remaining activity at 1 µM: read-out: % of control at 1 µM
T1 construct: purchased Ambit Biosciences (scanMAXX KINOMEscan)
T1 sequence (Q15835 1-563): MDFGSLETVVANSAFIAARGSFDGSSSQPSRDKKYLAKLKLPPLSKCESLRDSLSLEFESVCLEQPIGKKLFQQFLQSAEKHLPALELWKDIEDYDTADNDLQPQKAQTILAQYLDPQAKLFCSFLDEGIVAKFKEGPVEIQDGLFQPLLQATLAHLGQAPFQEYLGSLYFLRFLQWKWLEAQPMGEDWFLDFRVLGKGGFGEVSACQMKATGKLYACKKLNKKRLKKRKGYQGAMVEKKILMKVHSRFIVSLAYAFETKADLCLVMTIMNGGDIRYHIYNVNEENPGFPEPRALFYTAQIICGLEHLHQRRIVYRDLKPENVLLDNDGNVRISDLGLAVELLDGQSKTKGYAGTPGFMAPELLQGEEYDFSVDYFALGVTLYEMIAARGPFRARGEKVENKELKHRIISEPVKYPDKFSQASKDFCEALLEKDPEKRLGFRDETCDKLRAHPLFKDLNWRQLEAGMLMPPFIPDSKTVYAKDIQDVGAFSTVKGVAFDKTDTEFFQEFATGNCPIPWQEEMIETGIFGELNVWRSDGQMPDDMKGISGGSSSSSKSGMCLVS

panel of 442 kinases [2] = target: T2, panel of 442 kinases (Homo sapiens, UniProt P15735); settings: kinase PHKG2; for remaining activity at 1 µM: read-out: % of control at 1 µM
T2 construct: purchased Ambit Biosciences (scanMAXX KINOMEscan)
T2 sequence (P15735 1-406): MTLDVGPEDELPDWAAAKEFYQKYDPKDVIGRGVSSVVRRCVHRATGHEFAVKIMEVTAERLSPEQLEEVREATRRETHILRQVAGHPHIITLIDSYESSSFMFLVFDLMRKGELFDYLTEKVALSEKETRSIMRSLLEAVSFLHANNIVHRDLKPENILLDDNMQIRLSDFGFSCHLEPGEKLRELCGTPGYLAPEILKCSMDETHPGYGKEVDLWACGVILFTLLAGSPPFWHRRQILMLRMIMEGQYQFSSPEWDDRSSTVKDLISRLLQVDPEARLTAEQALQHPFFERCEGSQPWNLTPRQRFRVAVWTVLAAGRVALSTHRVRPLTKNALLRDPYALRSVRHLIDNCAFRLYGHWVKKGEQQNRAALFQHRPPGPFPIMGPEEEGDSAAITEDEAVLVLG

panel of 442 kinases [3] = target: T3, panel of 442 kinases (Homo sapiens, UniProt P51617); settings: kinase IRAK1; for remaining activity at 1 µM: read-out: % of control at 1 µM
T3 construct: purchased Ambit Biosciences (scanMAXX KINOMEscan)

panel of 442 kinases [4] = target: T4, panel of 442 kinases (Homo sapiens, UniProt O95819); settings: kinase MAP4K4; for remaining activity at 1 µM: read-out: % of control at 1 µM
T4 construct: purchased Ambit Biosciences (scanMAXX KINOMEscan)

panel of 442 kinases [5] = target: T5, panel of 442 kinases (Homo sapiens, UniProt Q04771); settings: ACVR1; for remaining activity at 1 µM: read-out: % of control at 1 µM
T5 construct: purchased Ambit Biosciences (scanMAXX KINOMEscan)
T5 sequence (Q04771 21-509): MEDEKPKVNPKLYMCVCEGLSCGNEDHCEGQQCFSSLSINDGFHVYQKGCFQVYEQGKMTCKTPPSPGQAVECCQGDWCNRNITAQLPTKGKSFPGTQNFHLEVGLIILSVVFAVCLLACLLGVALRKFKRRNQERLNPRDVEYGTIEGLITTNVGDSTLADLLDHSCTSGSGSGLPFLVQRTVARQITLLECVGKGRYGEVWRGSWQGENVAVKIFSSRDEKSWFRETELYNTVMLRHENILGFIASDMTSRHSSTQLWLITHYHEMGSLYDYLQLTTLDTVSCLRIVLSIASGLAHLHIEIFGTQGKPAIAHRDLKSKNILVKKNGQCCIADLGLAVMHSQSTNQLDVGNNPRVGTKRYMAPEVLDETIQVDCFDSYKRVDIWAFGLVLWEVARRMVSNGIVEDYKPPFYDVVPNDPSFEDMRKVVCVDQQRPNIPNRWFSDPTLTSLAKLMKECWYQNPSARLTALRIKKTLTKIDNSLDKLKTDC

panel of 442 kinases [6] = target: T6, panel of 442 kinases (Homo sapiens, UniProt P04626); settings: ERBB2; for remaining activity at 1 µM: read-out: % of control at 1 µM
T6 construct: purchased Ambit Biosciences (scanMAXX KINOMEscan)

panel of 442 kinases [7] = target: T7, panel of 442 kinases (Homo sapiens, UniProt Q9BWU1); settings: CDK11; for remaining activity at 1 µM: read-out: % of control at 1 µM
T7 construct: purchased Ambit Biosciences (scanMAXX KINOMEscan)

panel of 442 kinases [8] = target: T8, panel of 442 kinases (Homo sapiens, UniProt O75716); settings: kinase STK16; for remaining activity at 1 µM: read-out: STK16 (% of control at 1 µM)
T8 construct: purchased Ambit Biosciences (scanMAXX KINOMEscan)

panel of 442 kinases [9] = target: T9, panel of 442 kinases (Homo sapiens, UniProt Q16832); settings: DDR2; for remaining activity at 1 µM: read-out: % of control at 1 µM
T9 construct: purchased Ambit Biosciences (scanMAXX KINOMEscan)
T9 sequence (Q16832 22-855): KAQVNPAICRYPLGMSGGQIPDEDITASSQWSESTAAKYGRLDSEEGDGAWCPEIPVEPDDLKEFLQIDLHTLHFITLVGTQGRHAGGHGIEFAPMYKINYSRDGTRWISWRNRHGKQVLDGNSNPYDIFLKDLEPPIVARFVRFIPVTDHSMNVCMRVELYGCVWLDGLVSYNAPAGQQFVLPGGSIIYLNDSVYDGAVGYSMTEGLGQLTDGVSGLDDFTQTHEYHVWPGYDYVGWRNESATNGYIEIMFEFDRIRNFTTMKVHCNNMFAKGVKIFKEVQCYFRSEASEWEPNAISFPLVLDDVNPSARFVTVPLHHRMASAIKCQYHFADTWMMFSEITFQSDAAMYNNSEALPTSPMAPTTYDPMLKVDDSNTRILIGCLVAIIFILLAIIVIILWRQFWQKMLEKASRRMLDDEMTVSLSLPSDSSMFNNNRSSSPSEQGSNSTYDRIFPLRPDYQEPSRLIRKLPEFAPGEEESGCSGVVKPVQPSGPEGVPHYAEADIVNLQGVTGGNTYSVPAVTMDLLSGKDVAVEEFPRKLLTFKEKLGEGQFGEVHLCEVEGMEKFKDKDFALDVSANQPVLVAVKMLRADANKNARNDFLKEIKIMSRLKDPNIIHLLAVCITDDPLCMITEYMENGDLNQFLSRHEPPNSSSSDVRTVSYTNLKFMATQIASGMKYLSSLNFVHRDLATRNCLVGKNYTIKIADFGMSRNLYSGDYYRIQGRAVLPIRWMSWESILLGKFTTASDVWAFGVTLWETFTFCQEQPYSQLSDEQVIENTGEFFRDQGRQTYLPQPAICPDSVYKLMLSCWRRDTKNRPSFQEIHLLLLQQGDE

[10] = 10 µM, read-out: % of control at 10 µM

T4 sequence (O95819 whole entry): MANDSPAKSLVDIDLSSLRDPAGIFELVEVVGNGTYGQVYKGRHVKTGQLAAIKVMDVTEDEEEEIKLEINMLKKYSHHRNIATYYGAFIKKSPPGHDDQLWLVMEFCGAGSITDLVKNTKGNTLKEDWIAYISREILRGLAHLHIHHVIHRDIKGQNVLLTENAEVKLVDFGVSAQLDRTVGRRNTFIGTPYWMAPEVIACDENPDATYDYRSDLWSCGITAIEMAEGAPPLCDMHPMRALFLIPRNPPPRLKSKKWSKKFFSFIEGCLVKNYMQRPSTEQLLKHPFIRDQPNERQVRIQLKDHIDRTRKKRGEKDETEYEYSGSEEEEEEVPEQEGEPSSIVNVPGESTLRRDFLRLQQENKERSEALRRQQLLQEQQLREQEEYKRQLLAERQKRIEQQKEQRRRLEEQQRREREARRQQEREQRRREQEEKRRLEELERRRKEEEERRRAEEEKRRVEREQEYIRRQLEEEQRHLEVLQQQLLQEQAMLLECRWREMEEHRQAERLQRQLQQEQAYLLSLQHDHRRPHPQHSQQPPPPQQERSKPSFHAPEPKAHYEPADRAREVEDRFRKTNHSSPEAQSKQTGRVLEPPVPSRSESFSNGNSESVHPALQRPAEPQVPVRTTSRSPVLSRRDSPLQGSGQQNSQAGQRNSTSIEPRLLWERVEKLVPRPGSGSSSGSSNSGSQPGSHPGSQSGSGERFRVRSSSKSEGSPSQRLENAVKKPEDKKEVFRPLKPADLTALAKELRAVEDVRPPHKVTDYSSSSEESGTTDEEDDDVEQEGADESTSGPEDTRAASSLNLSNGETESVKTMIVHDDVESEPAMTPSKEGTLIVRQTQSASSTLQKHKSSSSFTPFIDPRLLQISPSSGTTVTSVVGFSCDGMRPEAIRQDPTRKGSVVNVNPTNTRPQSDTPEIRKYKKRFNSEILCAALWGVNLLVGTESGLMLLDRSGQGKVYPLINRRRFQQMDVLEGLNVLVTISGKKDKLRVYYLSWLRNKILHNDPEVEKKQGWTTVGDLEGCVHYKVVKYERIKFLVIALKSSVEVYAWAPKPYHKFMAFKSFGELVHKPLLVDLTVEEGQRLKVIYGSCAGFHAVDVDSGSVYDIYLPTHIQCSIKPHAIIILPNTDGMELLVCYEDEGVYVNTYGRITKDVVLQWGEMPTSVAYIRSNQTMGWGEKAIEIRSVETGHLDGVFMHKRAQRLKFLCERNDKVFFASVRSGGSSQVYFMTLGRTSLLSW
T3 sequence (P51617 whole entry): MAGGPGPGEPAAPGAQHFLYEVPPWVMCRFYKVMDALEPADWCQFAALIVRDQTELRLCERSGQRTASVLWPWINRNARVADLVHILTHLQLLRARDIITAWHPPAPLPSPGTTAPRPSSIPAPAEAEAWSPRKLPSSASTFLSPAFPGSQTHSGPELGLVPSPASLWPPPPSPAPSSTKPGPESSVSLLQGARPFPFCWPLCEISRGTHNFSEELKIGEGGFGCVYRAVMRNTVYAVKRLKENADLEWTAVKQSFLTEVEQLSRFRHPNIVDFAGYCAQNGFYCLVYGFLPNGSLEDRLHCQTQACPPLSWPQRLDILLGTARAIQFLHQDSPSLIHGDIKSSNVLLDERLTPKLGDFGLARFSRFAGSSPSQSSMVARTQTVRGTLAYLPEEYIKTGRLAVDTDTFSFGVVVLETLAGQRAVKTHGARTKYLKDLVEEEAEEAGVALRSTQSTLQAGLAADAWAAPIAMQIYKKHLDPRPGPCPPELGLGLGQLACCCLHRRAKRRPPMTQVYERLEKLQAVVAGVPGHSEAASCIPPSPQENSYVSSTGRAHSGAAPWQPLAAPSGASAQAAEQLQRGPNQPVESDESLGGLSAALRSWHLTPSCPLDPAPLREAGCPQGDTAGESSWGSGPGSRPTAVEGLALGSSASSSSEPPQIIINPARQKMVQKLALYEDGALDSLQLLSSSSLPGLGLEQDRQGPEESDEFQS
T7 sequence (Q9BWU1 whole entry): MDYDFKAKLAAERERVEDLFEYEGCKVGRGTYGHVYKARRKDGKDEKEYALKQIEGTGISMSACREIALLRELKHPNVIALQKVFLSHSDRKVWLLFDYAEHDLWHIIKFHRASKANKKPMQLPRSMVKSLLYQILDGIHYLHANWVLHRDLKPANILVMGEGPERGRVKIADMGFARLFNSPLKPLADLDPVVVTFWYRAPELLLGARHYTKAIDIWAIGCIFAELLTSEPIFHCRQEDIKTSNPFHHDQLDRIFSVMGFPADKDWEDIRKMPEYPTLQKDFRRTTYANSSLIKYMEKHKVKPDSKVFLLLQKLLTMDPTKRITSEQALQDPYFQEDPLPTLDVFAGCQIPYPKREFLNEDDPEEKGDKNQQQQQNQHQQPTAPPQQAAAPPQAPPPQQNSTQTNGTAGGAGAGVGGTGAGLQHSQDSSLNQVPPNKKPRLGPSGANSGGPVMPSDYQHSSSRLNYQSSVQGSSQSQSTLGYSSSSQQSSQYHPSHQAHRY
T8 sequence (O75716 whole entry): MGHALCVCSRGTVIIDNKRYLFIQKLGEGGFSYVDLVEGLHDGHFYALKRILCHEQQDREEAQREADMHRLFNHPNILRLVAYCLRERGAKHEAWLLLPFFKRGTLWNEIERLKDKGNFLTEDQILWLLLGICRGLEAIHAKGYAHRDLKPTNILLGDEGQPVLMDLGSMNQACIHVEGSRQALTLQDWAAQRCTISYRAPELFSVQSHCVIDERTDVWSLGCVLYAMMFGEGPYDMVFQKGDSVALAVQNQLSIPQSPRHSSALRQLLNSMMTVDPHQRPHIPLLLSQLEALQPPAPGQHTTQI
T6 sequence (P04626 23-1255): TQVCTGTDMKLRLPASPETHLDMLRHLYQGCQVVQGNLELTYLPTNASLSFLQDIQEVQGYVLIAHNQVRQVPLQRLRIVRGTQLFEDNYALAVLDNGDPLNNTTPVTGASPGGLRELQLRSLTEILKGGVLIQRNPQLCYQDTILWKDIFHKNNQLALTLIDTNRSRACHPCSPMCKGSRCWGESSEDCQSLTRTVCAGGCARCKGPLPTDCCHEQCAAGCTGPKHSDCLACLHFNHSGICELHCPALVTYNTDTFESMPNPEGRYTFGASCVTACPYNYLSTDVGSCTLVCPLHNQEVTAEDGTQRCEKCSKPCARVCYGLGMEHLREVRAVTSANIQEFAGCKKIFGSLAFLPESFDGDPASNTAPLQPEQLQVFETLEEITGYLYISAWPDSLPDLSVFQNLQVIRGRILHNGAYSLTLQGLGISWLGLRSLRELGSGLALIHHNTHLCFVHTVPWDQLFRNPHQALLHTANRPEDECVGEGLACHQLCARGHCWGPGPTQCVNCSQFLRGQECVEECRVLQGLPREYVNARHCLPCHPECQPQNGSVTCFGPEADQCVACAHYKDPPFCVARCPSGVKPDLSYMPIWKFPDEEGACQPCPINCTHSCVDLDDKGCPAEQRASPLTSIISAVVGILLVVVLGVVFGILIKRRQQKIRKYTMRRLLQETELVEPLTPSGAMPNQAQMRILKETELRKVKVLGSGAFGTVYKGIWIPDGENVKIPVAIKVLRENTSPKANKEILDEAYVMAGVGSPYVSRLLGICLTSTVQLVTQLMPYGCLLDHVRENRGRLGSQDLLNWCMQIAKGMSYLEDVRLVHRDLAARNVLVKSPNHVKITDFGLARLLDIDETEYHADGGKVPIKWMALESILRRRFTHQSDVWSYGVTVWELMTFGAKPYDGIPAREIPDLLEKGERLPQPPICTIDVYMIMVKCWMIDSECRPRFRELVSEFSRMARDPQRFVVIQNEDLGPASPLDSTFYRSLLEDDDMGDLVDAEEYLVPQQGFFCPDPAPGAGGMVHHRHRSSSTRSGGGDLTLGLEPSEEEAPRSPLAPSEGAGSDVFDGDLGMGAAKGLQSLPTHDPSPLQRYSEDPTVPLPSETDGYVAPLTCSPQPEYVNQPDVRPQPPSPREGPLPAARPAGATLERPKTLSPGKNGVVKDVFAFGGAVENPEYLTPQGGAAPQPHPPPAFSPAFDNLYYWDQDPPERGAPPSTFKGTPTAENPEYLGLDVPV

SMILES | remaining activity at 1 µM (panel of 442 kinases [1]) | remaining activity at 10 µM (panel of 442 kinases [1]; [10]) | remaining activity at 1 µM (panel of 442 kinases [2]) | remaining activity at 10 µM (panel of 442 kinases [2]; [10]) | remaining activity at 1 µM (panel of 442 kinases [3]) | remaining activity at 10 µM (panel of 442 kinases [3]; [10]) | remaining activity at 1 µM (panel of 442 kinases [4]) | remaining activity at 10 µM (panel of 442 kinases [4]; [10]) | remaining activity at 1 µM (panel of 442 kinases [5]) | remaining activity at 10 µM (panel of 442 kinases [5]; [10]) | remaining activity at 1 µM (panel of 442 kinases [6]) | remaining activity at 10 µM (panel of 442 kinases [6]; [10]) | remaining activity at 1 µM (panel of 442 kinases [7]) | remaining activity at 10 µM (panel of 442 kinases [7]; [10]) | remaining activity at 1 µM (panel of 442 kinases [8]) | remaining activity at 10 µM (panel of 442 kinases [8]; 10 µM, read-out: STK16 (% of control at 10 µM)) | remaining activity at 1 µM (panel of 442 kinases [9]) | remaining activity at 10 µM (panel of 442 kinases [9]; [10])
Nc1cc(C(F)(F)F)c(-c2cc(N3CCOCC3)nc(N3CCOCC3)n2)cn1 [Buparlisib] | 100% | 100% | 100% | 100% | 82% | 71% | 100% | 100% | 100% | 100% | 85% | 100% | 100% | 98% | 100% | 92% | 96% | 84%
Cn1c(=O)n(-c2ccc(C(C)(C)C#N)cc2)c2c3cc(-c4cnc5ccccc5c4)ccc3ncc21 [Dactolisib, 2-methyl-2-[4-(3-methyl-2-oxo-8-quinolin-3-yl-2,3-dihydroimidazo[4,5-c]quinolin-1-yl)-phenyl] propionitrile] | 100% |  | 100% |  | 54% |  | 73% |  | 65% |  | 100% |  | 88% |  | 100% |  | 97% | 
COc1ncc(-c2ccc3nccc(-c4ccnnc4)c3c2)cc1NS(=O)(=O)c1ccc(F)cc1F [Omipalisib] | 81% |  | 100% |  | 100% |  | 100% |  | 100% |  | 100% |  | 64% |  | 42% |  | 100% | 
FC(F)c1nc2ccccc2n1-c1nc(N2CCOCC2)nc(N2CCOCC2)n1 [ZSTK474, 2-(difluoromethyl)-1-[4,6-di(4-morpholinyl)-1,3,5-triazin-2-yl]-1H-benzimidazole] | 100% |  | 100% |  | 92% |  | 93% |  | 76% |  | 100% |  | 88% |  | 100% |  | 100% | 

— paper PMC5564600 (Oncotarget, 2017)
